According to patent publication EP0203441A2, “Substituted benzoquinolizines, process for their preparation and their use as medicaments” (BAYER AG, priority 1985, dated 1986):

Tested on: ketaminanästhesierten Katze
Experiment: Effect on venous capacity (plethysmograph) and mean arterial pressure in the anaesthetised cat
Format: in vivo
Conditions: Dosis 0,1 mg/kg i.v., ketamine-anaesthetised cat
Description: Die Wirkung der erfindungsgemäßen Stoffe auf die Venenkapazität wird an der narkotisierten Katze mittels eines Plethysmographen gemessen. Als Vergleich wird in jedem Versuch als Standardsubstanz Natrium-Nitroprussid untersucht.

## CCOc1ccc2c(c1)CCN1CCC(Nc3ccccc3NC(C)=O)CC21 (single isomer, unassigned) [Beispiel 26]
  art.Mitteldruck: Ø
